Measurements taken from patent publication US6716828B1, “Compounds, methods and pharmaceutical compositions for treating cellular damage, such as neural or cardiovascular tissue damage” (Guilford Pharmaceuticals, Inc., priority 1999, dated 2004).

Molecular target: T1, purified recombinant human PARP (Homo sapiens, UniProt P09874)
T1 construct: purchased Trevigan (Gaithersburg, Md.)
Test: PARP enzyme assay (IC50), [3H]NAD incorporation
Assay type: biochemical
Conditions: approximate IC50 values
Method: A convenient method to determine IC50 of a PARP inhibitor compound is PARP assay using purified recombinant human PARP from Trevigan (Gaithersburg, Md.), as follows: The PARP enzyme assay is set up on ice in a volume of 100 microliters consisting of 100 mM Tris-HCl (pH 8.0). 1 mM MgCl2, 28 mM KCl, 28 mM NaCl, 0.1 mg/ml of DNase I activated herring sperm DNA (Sigma, Mo.), 3.0 micromolar [3H]nicotinamide adenine dinucleotide (470 mci/mmole), 7 micrograms/ml PARP enzyme, and various concentrations of the compounds to be tested. The reaction is initiated by incubating the mixture at 25° C. After 15 minutes of incubation, the reaction is terminated by adding 500 microliters of ice code 20% (w/v) trichloracetic acid. The precipitate formed is transferred onto a glass fiber filter (Packard Unifilter-GF/B) and washed three items with ethanol. After the filter is dried, the radioactivity is determined by scintillation counting.
Using the PARP assay described above, approximate IC50 values were obtained for the following compounds: […]

T1 sequence (P09874 whole entry): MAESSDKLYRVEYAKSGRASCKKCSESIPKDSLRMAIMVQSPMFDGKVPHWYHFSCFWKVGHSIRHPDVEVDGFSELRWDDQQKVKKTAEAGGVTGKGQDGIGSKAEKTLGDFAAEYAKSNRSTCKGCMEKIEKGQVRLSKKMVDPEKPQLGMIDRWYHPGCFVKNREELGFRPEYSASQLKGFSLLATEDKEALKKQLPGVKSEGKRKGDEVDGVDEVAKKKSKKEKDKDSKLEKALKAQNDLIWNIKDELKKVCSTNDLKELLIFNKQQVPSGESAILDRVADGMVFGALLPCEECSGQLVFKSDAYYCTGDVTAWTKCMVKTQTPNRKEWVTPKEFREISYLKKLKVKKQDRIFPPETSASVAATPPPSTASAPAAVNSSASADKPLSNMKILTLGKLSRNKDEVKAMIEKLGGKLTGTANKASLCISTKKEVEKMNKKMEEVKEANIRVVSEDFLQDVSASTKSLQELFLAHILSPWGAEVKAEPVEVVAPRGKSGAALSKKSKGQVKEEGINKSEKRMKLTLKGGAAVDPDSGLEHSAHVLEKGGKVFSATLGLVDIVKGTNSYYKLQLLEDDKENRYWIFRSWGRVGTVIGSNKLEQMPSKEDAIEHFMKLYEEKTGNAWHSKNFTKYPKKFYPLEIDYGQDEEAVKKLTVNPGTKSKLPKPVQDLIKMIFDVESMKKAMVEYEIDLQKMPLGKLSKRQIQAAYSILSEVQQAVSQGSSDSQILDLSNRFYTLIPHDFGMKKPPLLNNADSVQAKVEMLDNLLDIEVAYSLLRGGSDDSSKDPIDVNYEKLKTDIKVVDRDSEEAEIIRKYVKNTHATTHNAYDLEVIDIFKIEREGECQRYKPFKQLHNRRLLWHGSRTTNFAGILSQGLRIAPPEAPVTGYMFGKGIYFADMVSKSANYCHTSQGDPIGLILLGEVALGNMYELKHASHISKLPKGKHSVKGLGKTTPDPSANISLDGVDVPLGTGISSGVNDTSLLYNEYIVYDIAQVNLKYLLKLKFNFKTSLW

SMILES	IC50
O=C1NN=C2C3C=CC=CC3[S+]([O-])C3=CC=CC1C32 (stereo not drawn)	0.34 µM
O=c1[nH]nc2c3c(cccc13)Oc1ccc(S(=O)(=O)NCCCN3CCOCC3)cc1-2	0.185 µM
O=c1[nH]nc2c3c(cccc13)Oc1ccc(S(=O)(=O)NCCc3ccncc3)cc1-2	0.089 µM
O=c1[nH]nc2c3c(cccc13)-c1ccc(S(=O)(=O)NCCN3CCOCC3)cc1-2	0.34 µM
COC(=O)C1CCCCN1S(=O)(=O)c1ccc2c(c1)C1CNC(=O)c3cccc(c31)O2 (stereo not drawn)	0.595 µM
Cc1cc2c(c(-n3nc4ccccc4n3)c1)Oc1cccc3c(=O)[nH]nc-2c13	25 µM
CC(=O)Nc1ccc2c(c1)-c1n[nH]c(=O)c3cccc-2c13	0.069 µM
CCCCN(C)Cc1ccc2c(c1)-c1n[nH]c(=O)c3cccc(c13)O2	0.12 µM
CCN(CC)CCNS(=O)(=O)c1ccc2c(c1)-c1n[nH]c(=O)c3cccc-2c13	0.39 µM
O=C1NCC2c3cc(S(=O)(=O)O)ccc3Oc3cccc1c32 (stereo not drawn)	0.161 µM
O=c1[nH]nc2c3c(cccc13)Oc1ccc(S(=O)(=O)NCCN3CCOCC3)cc1-2	0.081 µM
CCOP(=O)(Nc1ccc2c(c1)-c1n[nH]c(=O)c3cccc(c13)O2)OCC	0.199 µM
O=c1[nH]nc2c3c(cccc13)Oc1ccc(CN3CCOCC3)cc1-2	0.075 µM
CN(C)CCN(C)Cc1ccc2c(c1)-c1n[nH]c(=O)c3cccc(c13)O2	0.085 µM
Cc1cc2c(c(S(=O)(=O)O)c1)Oc1cccc3c(=O)[nH]nc-2c13	2.03 µM
O=C1NCC2c3cc(S(=O)(=O)NN4CCOCC4)ccc3Oc3cccc1c32 (stereo not drawn)	0.144 µM
O=c1[nH]nc2c3c(cccc13)Oc1c-2ccc2ccccc12	40 µM
O=c1[nH]nc2c3c(cccc13)Oc1ccc(CN3CCN(c4ccccn4)CC3)cc1-2	0.077 µM
CS(=O)(=O)Nc1ccc2c(c1)-c1n[nH]c(=O)c3cccc(c13)O2	0.198 µM
O=c1[nH]nc2c3c(cccc13)Oc1ccc(CN3CCCCC3)cc1-2	0.072 µM
O=c1[nH]nc2c3c(cccc13)Oc1ccc(S(=O)(=O)NCCN3CCCCC3)cc1-2	0.192 µM
O=C(O)C(O)C(O)C(=O)Nc1ccc2c(c1)-c1n[nH]c(=O)c3cccc-2c13 (stereo not drawn)	0.065 µM
O=c1[nH]nc2c3c(cccc13)Oc1ccc(-c3nc4ccccc4nc3-c3ccccc3)cc1-2	0.1 µM
O=C1NCC2c3cc(S(=O)(=O)NCCN4CCCCC4)ccc3Oc3cccc1c32 (stereo not drawn)	0.361 µM
CN1CCN(S(=O)(=O)c2ccc3c(c2)-c2n[nH]c(=O)c4cccc(c24)O3)CC1	0.208 µM
CN1CCN(S(=O)(=O)c2ccc3c(c2)C2CNC(=O)c4cccc(c42)O3)CC1 (stereo not drawn)	0.233 µM
O=c1[nH]nc2c3c(cccc13)Oc1cc3ccccc3cc1-2	0.139 µM
CN(C)c1cccc(OCc2ccc3c(c2)-c2n[nH]c(=O)c4cccc(c24)O3)c1	0.128 µM
O=c1[nH]nc2c3c(cccc13)Oc1ccc(S(=O)(=O)NCCN(CCO)CCO)cc1-2	0.158 µM

More lines, now with the values ahead:

IC50	SMILES
0.062 µM	O=c1[nH]nc2c3c(cccc13)Oc1ccc(CN3CCN(c4ccccc4)CC3)cc1-2
0.059 µM	CC(=O)OC(C(=O)O)C(OC(C)=O)C(=O)Nc1ccc2c(c1)-c1n[nH]c(=O)c3cccc-2c13 (stereo not drawn)
0.058 µM	O=C(O)[C@@H]1CCCN1S(=O)(=O)c1ccc2c(c1)-c1n[nH]c(=O)c3cccc(c13)O2
0.054 µM	O=c1[nH]nc2c3c(cccc13)Oc1ccc(COc3cccnc3)cc1-2
0.052 µM	O=c1[nH]nc2c3c(cccc13)Oc1ccc(S(=O)(=O)O)cc1-2
0.052 µM	O=C(O)c1cccc(S(=O)(=O)Nc2ccc3c(c2)-c2n[nH]c(=O)c4cccc-3c24)c1
0.045 µM	NCNCc1ccc2c(c1)-c1n[nH]c(=O)c3cccc(c13)O2
0.044 µM	O=c1[nH]nc2c3c(cccc13)Oc1ccc(CN3CCN(Cc4ccccc4)CC3)cc1-2
0.04 µM	NNC(=O)c1cc(OCc2ccc3c(c2)-c2n[nH]c(=O)c4cccc(c24)O3)cc(C(=O)NN)c1
0.037 µM	O=c1[nH]nc2c3c(cccc13)Oc1ccc(S(=O)(=O)NC3CN4CCC3CC4)cc1-2 (stereo not drawn)
0.036 µM	CC(=O)Nc1ccc2c(c1)-c1n[nH]c(=O)c3cccc(c13)O2
0.035 µM	NNC(=O)c1ccc(OCc2ccc3c(c2)-c2n[nH]c(=O)c4cccc(c24)O3)cc1
0.029 µM	O=C(O)CCC(=O)Nc1ccc2c(c1)-c1n[nH]c(=O)c3cccc-2c13
0.028 µM	NCCSCc1ccc2c(c1)-c1n[nH]c(=O)c3cccc(c13)O2
0.025 µM	O=c1[nH]nc2c3c(cccc13)Oc1ccc(NS(=O)(=O)O)cc1-2
0.025 µM	N#CCc1ccc2c(c1)-c1n[nH]c(=O)c3cccc(c13)O2
0.023 µM	O=C(O)C(O)C(O)C(=O)Nc1ccc2c(c1)-c1n[nH]c(=O)c3cccc(c13)O2 (stereo not drawn)
0.021 µM	O=C(O)CCC(=O)Nc1ccc2c(c1)-c1n[nH]c(=O)c3cccc(c13)O2
0.018 µM	CC(=O)OC(C(=O)O)C(OC(C)=O)C(=O)Nc1ccc2c(c1)-c1n[nH]c(=O)c3cccc(c13)O2 (stereo not drawn)
0.017 µM	O=c1[nH]nc2c3c(cccc13)Oc1ccc(CSc3ccncc3)cc1-2
0.017 µM	CN(C)Cc1ccc2c(c1)-c1n[nH]c(=O)c3cccc(c13)O2

Tested on: not given
Test: not given
Conditions: not given

SMILES	melting point
COP(=O)(O)Cc1ccc2c(c1)-c1n[nH]c(=O)c3cccc(c13)O2	196 to 201 °C

Tested on: rabbits
Test: not given
Conditions: 1 mg/kg; cited from earlier work

SMILES	reduction in infarct size
Oc1cccc2c(O)nccc12 [1,5-dihydroxyisoquinoline]	38-48%

Same assay, conditions: single injection 10 mg/kg, one minute before occlusion or one minute before reperfusion; cited from earlier work

SMILES	reduction in infarct size in the heart
NC(=O)c1cccc(N)c1 [3-amino-benzamide]	32-42%

Tested on: human fibroblast cells lines (either W138 or BJ cells)
Test: Extending or increasing proliferative capacity and lifespan of cells
Assay type: cell-based
Conditions: 10 μM
Method: At the time of subdivision, the media is aspirated, and the cells rinsed with phosphate buffer saline (PBS) and then trypsinzied. The cells are counted with a Coulter counter and plated at a density of 10^5 cells per cm^2 in 6-well tissue culture plates in DMEM/199 medium supplemented with 10% bovine calf serum and varying amounts (0.10 μM, and 1 mM; from a 100× stock solution in DMEM/M199 medium) of a PARP inhibitor. This process is repeated every 7 days until the cells appear to stop dividing. The untreated (control) cells reach senescence and stop dividing after about 40 days a culture. […] The cells treated with 1 mM 3-AB will still divide after 60 days in culture.

SMILES	effect on lifespan and proliferative capacity of the cells
NC(=O)c1cccc(N)c1 [3-amino-benzamide]	little or no effect

Same assay, conditions: 100 μM

SMILES	effect on lifespan and proliferative capacity of the cells
NC(=O)c1cccc(N)c1 [3-amino-benzamide]	lengthen the lifespan of the cells

Same assay, conditions: 1 mM

SMILES	effect on lifespan and proliferative capacity of the cells
NC(=O)c1cccc(N)c1 [3-amino-benzamide]	dramatically increases the lifespan and proliferative capacity of the cells

Same assay, conditions: 1 mM; untreated cells stop dividing after about 40 days

SMILES	time in culture at which cells still divide
NC(=O)c1cccc(N)c1 [3-amino-benzamide]	> 60 days
